According to patent US20210213039A1, “COMPOSITION CONTAINING ECTOINE OR HYDROXYECTOINE AS AN ACTIVE SUBSTANCE FOR PROMOTING THE REGENERATION OF INJURED BODY TISSUE” (Bitop AG, priority 2012, published 2021):

Tests used:
[1] = tested on: porcine ex-vivo skin punches; experiment: Ex-vivo porcine wound healing model (skin punches, wound healing score); parameters: species or system pig; settings: for Wound healing potential: porcine ex-vivo skin punches; for Wound healing progress based on the PBS control (MW) / Absolute wound healing progress (wound healing score, MW): 5 μl into the wound, after 48 h; for Wound healing progress based on the PBS control (MW): PBS isotonic = 1.00; for Absolute wound healing progress (wound healing score, MW): score 0-4
Description: An ex-vivo porcine wound healing model was used as it has been described in patent publication DE 103 17 400 B4.
From the plicae of washed and sterilized pig ears sample punches 6 mm in diameter were taken. From the center of the punches the epidermis and the upper dermis were removed in an area of 3 mm. Immediately after the models had been generated 5 μl of the test substances were introduced into the wounds, while 5 μl of PBS were applied into the control models. After 48 h (t48 h) the models were flash-frozen and stored at −80° C.
14 test series each were carried out so that 8 to 11 evaluable models were available for each sample.
The models were completely embedded in tissue freezing medium (company of Leica, Nussloch), and 6 μm thin sections were prepared using a cryostat. Care had been taken that the focus was always in the center of the respective model.
The sections were placed on SuperFrost object slides, air dried, fixed for 10 min. in −20° C. cold acetone, and stored at −80° C.
All models were stained with hematoxylin/eosin (2 sections each). The sequence of the staining process was as follows:
The staining was evaluated by means of a Leica light microscope DM LS and an Olympus Camedia digital camera.
0: No wound healing progress 1: Small wound tongue 2: Large wound tongue 3: Closed sheet 4: Multi-layered closed sheet.
In the event that both wound margins could be assessed the average between the left and the right wound margin was determined. The statistical evaluations were made using Student's paired T-test.

[2] = tested on: HaCaT cells (human skin cells); experiment: Wound closure in vitro: circular injury in a HaCaT monolayer; format: cell-based; settings: for Area of Injury (MW): 0.5% FCS, n=4
Description: Plating of HaCaT cells (human skin cells) took place on collagen-I coated 24-well plates. With a complete medium (10% FCS=fetal calf serum) the cells grew together as monolayer within a period of 24 h.
After this cell layer had closed a circular injury was applied in the center using a sterile tip of a defined diameter that averaged 0.68 mm (0.363 mm^2).
When the injury had been applied the complete medium was changed to a starvation medium containing only 0.5 w/w of FCS (fetal calf serum) instead of 10% w/w FCS. The following test solutions were then pipetted on the cells (per solution: n=4):
0.5% FCS+PBS (phosphate buffered saline), control solution 0.5 FCS+1 mM ectoine 0.5 FCS+10 mM ectoine 0.5% FCS+100 mM ectoine.
Over a time span of 48 h the cells were incubated with the test solutions during which wound closure was documented with the aid of a digital camera. In each case photos were taken at the beginning and then at 24-h intervals. The area still found to be free in each case was measured or calculated and expressed in mm^2. The results can be seen from the following tables (SD: Standard deviation, MW: Mean value): […]

[3] = tested on: ARPE-19 cells (adherent retinal pigment epithelial cells); experiment: Re-epithelialization scratch assay; format: cell-based; settings: for Gap width in %: after 24 h, untreated sample = 100%; for Gap width in treated cell cultures (re-epithelialization): first two days, especially in serum-free cultures
Description: After 24 hours of incubation using 0, 0.1, 0.5, 1, 2.5 and 5 mM of ectoine/hydroxyectoine in serum-free and serum-containing media defined cell areas were removed (scratch assay) from a confluent cell layer of ARPE-19 cells (adherent retinal pigment epithelial cells). The width of the applied gap was determined via microscope at previously marked places. 24 and 48 hours later in each case a photo documentation was prepared with the gap width being again determined at the respective places. 6 tests were performed for each concentration.
The mean value of the gap widths after 24 h of the sample not treated with ectoine was determined to be 100%. The following gap width percentages could be detected: […]

## OCC(CO)OC1OC(CO)[C@@H](O)C(O)C1O (stereo in doubt) [glucosylglycerol, 2-O-α-D-glucosylglycerol]
[1]
  Wound healing potential: improved wound healing potential

## OCC(CO)O[C@H]1O[C@H](CO)[C@@H](O)[C@H](O)[C@H]1O [GG I, Glucosylglycerol]
[1]
  Wound healing progress based on the PBS control (MW): 1.42
  Absolute wound healing progress (wound healing score, MW): 2.12

## OCC(CO)O[C@H]1O[C@H](CO)[C@@H](O)[C@H](O)[C@H]1O [GG hypertonic, Glucosylglycerol]
[1]
  Wound healing progress based on the PBS control (MW): 1.17
  Absolute wound healing progress (wound healing score, MW): 1.66

## CC1=NC[C@H](O)[C@@H](C(=O)O)N1 [HE I, Hydroxyectoine]
[1]
  Wound healing progress based on the PBS control (MW): 1.05
  Absolute wound healing progress (wound healing score, MW): 1.92

## CC1=NC[C@H](O)[C@@H](C(=O)O)N1 [HE hypertonic, Hydroxyectoine]
[1]
  Wound healing progress based on the PBS control (MW): 1.21
  Absolute wound healing progress (wound healing score, MW): 2.08

## CC1=NCC[C@@H](C(=O)O)N1 [ectoine, (S)-2-methyl-1,4,5,6-tetrahydropyrimidine-4-carboxylic acid]
[2]; 1 mM ectoine
  Closure of the circular injury in comparison with the control solution: marked tendency towards faster closure
[2]; 1 mM ectoine, after 0 hours
  Area of Injury (MW): 0.354 mm^2
[2]; 1 mM ectoine, after 24 hours
  Area of Injury (MW): 0.157 mm^2
[2]; 1 mM ectoine, after 48 hours
  Area of Injury (MW): 0.042 mm^2
[2]; 10 mM ectoine
  Closure of the circular injury in comparison with the control solution: marked tendency towards faster closure
[2]; 10 mM ectoine, after 0 hours
  Area of Injury (MW): 0.351 mm^2
[2]; 10 mM ectoine, after 24 hours
  Area of Injury (MW): 0.182 mm^2
[2]; 10 mM ectoine, after 48 hours
  Area of Injury (MW): 0.023 mm^2
[2]; 100 mM ectoine
  Closure of the circular injury in comparison with the control solution: delayed healing
[2]; 100 mM ectoine, after 0 hours
  Area of Injury (MW): 0.325 mm^2
[2]; 100 mM ectoine, after 24 hours
  Area of Injury (MW): 0.244 mm^2
[2]; 100 mM ectoine, after 48 hours
  Area of Injury (MW): 0.171 mm^2
[3]; 0.1 mM ectoine
  Gap width in %: 100.687%
[3]; 0.5 mM ectoine
  Gap width in %: 96.434%
[3]; 1 mM ectoine
  Gap width in %: 91.632%
[3]; 2.5 mM ectoine
  Gap width in %: 93.012%
[3]; 5 mM ectoine
  Gap width in %: 88.418%
[3]
  Gap width in treated cell cultures (re-epithelialization): diminished faster

## CC1=NC[C@H](O)[C@@H](C(=O)O)N1 [hydroxyectoine, (4S,5S)-5-hydroxy-2-methyl-1,4,5,6-tetrahydropyrimidine-4-carboxylic acid]
[3]
  Re-epithelialization, hydroxyectoine compared with ectoine: slightly more effective with hydroxyectoine than with ectoine
  Gap width in treated cell cultures (re-epithelialization): diminished faster
[1]
  Wound healing potential: improved wound healing potential
